Assay [1] has as its system A549 cell lines (lung cancer cell lines). The assay can be described thus: Oxygen Consumption Rate (OCR) of cells, corrected for cell viability (Cyquant). The assay is classed as cell-based. The conditions noted are these: Homo sapiens, read-out: OCR IC50. The procedure:
The compounds synthesized by the methods disclosed in the Examples of the present invention have been measured on oxygen consumption rate and extracellular oxidation by the methods disclosed in the Test Examples below.
3×10^3 cells from A549 cell lines (purchased from ATCC-American Type Culture Collection), which are lung cancer cell lines, were placed on XF96 cell culture plates using RPMI1640 medium, and cultured at 37° C. in a 5% CO2 condition for 16 hours or more for attachment.
After 16 hours, the cells were treated with the drug at six different concentrations between 0 μM and 20 μM. After 24 hours, the existing medium was removed, and XF assay medium (15 mM D-Glucose, 15 mM sodium pyruvate, 4 mM L-Glutamine, pH 7.4) was added. The cells were retreated with the drug, and additionally cultured in Prep station at 37° C. in a non-CO2 condition for 1 hour. During the one-hour culture in the Prep station, a sensor cartridge was placed and calibrated for 20 minutes, and a plate with cells was placed to analyze the OCR. After the analysis was completed, XF96 plate was measured for cell viability using Cyquant assay, which measures the amount of intracellular DNA, in the following method. XF assay medium and the drug were removed, and the cells were placed in a cryogenic refrigerator (−80° C.) for at least 4 hours to be frozen. After the plate was made to be at room temperature, a solution where a lysis buffer and fluorescent GR dye were mixed was placed by 200 μL per well. After 20-minute reaction at room temperature, […] was measured between […] to calculate cell viability. A measured value of a well untreated with the drug was converted to 100% by reflecting cell viability to the OCR value. Concentration of a drug which inhibits the OCR value reflecting cell viability by 50% was calculated.

For assay [2], the system named is SK-MEL-28 cells. The assay can be described thus: Inhibitory effect of cancer cell proliferation, MTT. The conditions noted are these: Homo sapiens. The assay is classed as cell-based. The procedure: The compounds prepared in the above Examples were evaluated for the inhibitory effect of cancer cell proliferation according to the method described in the following Test Example.
SK-MEL-28 cells derived from human melanoma were used, and the concentration (cell growth inhibitory concentration, IC50) at which cell growth was inhibited to 50% was measured using MTT reagent (3-(4,5-dimethylthiazole-2-yl)-2,5-[…] bromide) to confirm the inhibitory effect of cancer cell proliferation of the drugs synthesized in Examples 1 to 84.
First, SK-MEL-28 cells were cultured in 96-well plates at a cell number of about 1,250 in RPMI-1640 medium containing 11.1 mM glucose and 10% calf blood serum or 0.75 mM glucose and 10% calf blood serum, and were cultured for 16 hours. […] After treatment of the compound, MTT was added to the culture medium to confirm living cells and further cultured for 2 hours. The resulting formazane crystal was dissolved using dimethyl sulfoxide, and the absorbance of the solution was measured at 555 nm. After culturing for 72 hours, the number of viable cells in the well plate treated with the compounds synthesized in the Examples relative to the number of cells cultured in the well plate without treatment of the compounds was expressed as cell viability (%) according to each treatment concentration. By using this, a cell viability curve graph was prepared, and the inhibitory effect of cancer cell proliferation was confirmed by calculating the concentration of the compound whose growth was inhibited to 50% (IC50).

Where [3] appears, read: A549 cells, 24 h drug treatment, OCR value reflecting cell viability.
The mark [4] stands for this setting: SK-MEL-28, 72 h, read-out: SK-MEL-28 0.75 mM glucose Cell viability (IC50 μM).
Where [5] appears, read: SK-MEL-28, 72 h, read-out: SK-MEL-28 11.1 mM glucose Cell viability (IC50 μM).
[6] abbreviates: SK-MEL-28, 0.75 mM glucose, 72 hours, MTT, read-out: SK-MEL-28 0.75 mM glucose Cell viability (IC50 μM).
The mark [7] stands for this setting: SK-MEL-28, 11.1 mM glucose, 72 hours, MTT, read-out: SK-MEL-28 11.1 mM glucose Cell viability (IC50 μM).

Where two headings read alike, the source gives them in different places.

As a reminder, the IC50 is the concentration at which inhibition is half-maximal.

With `COc1ccc2cc3[n+](cc2c1OC)CCc1cc2c(cc1-3)OCO2` [Berberine, reference compound], the IC50 in assay [1] (setting [3]) came out at 4.6 µM.
As to `Nc1cc[n+](CCc2ccccc2)cc1` [Example 1, 4-Amino-1-phenethylpyridinium chloride], the IC50 worked out at 1.1 µM in assay [1] (A549, 24 h); 17.9 µM in assay [2] (setting [4]); 163 µM in assay [2] (setting [5]).
For `Nc1cc[n+](CCc2ccccc2)c(Br)c1` [Example 7, 4-Amino-2-bromo-1-phenethylpyridinium chloride], the IC50 was determined as 0.4 µM in assay [1] (setting [3]), 20.7 µM in assay [2] (setting [6]) and 16.8 µM in assay [2] (setting [7]).
The matching figures for `Nc1cc[n+](CCc2ccccc2)c(N)c1` [Example 8, 2,4-Diamino-1-phenethylpyridinium bromide]: 1.2 µM, 4.7 µM and 75.1 µM.
For `Nc1cc[n+](CCc2ccccc2Cl)cc1` [Example 11, 4-Amino-1-(2-chlorophenethyl)pyridinium chloride], the IC50 in assay [1] (setting [3]) was 0.7 µM; in assay [2] (setting [6]) it was 11.9 µM; in assay [2] (setting [7]), 38.5 µM.
The like results for `Nc1cc[n+](CCc2ccccc2Cl)c(N)c1` [Example 12, 2,4-Diamino-1-(2-chlorophenethyl)pyridinium bromide] were, in that order, 0.8 µM, 12.8 µM and 55.5 µM.
The like results for `c1ccc(CC[n+]2ccsc2)cc1` [Example 13, 3-Phenethylthiazol-3-ium iodide] were, in that order, 16.5 µM, 129 µM and 320 µM.
Turning to `Nc1scc[n+]1CCc1ccccc1` [Example 14, 2-Amino-3-phenethylthiazol-3-ium iodide], the figures for the IC50 in assay [2] (setting [6]) and in assay [2] (setting [7]) were 154 µM and 277 µM, respectively.
With `Nc1cc[n+](CCc2ccccc2)c(C2CC2)c1` [Example 15, 4-amino-2-cyclopropyl-1-phenethylpyridinium iodide], the IC50 in assay [1] (setting [3]) worked out at 2.3 µM; in assay [2] (setting [6]), 6.8 µM; in assay [2] (setting [7]), 47 µM.
The matching figures for `Nc1cc[n+](CCc2ccccc2)c2ccccc12` [Example 16, 4-Amino-1-phenethylquinolinium iodide]: 1.5 µM, 8 µM and 28.2 µM.
For `CN(C)c1cc[n+](CCc2ccccc2)cc1` [Example 17, 4-(Dimethylamino)-1-phenethylpyridinium chloride], the figures for the IC50 in assay [1] (setting [3]), in assay [2] (setting [6]) and in assay [2] (setting [7]) were 4.2 µM, 6.9 µM and 75.4 µM, respectively.
The matching figures for `Nc1cc[n+](CCc2ccccc2)c(F)c1` [Example 18, 4-amino-2-fluoro-1-phenethylpyridinium chloride]: 0.6 µM, 10.7 µM and 16.9 µM.
The matching figures for `Nc1cc[n+](CCc2ccc(Cl)c(Cl)c2)cc1` [Example 19, 4-Amino-1-(3,4-dichlorophenethyl)pyridinium chloride]: 0.5 µM, 5.9 µM and 8.8 µM.
Take `Nc1cc[n+](Cc2ccccc2)cc1` [Example 20, 4-Amino-1-benzylpyridinium chloride]: the IC50 in assay [1] (setting [3]) came to 1.8 µM; in assay [2] (setting [6]) it was 14.7 µM; in assay [2] (setting [7]), 143 µM.
The like results for `Nc1cc[n+](Cc2ccccc2)c(F)c1` [Example 21, 4-Amino-1-benzyl-2-fluoropyridinium chloride] were, in that order, 0.9 µM, 12.5 µM and 27.4 µM.
The matching figures for `c1ccc(CC[n+]2cccc3c2CCCC3)cc1` [Example 22, 1-Phenethyl-5,6,7,8-tetrahydroquinolinium chloride]: 7.9 µM, 18.5 µM and 193 µM.
The matching figures for `Nc1cc[n+](CCCc2ccccc2)cc1` [Example 23, 4-Amino-1-(3-phenylpropyl)pyridinium chloride]: 0.9 µM, 5.4 µM and 51.1 µM.
With `Nc1cc[n+](CCCc2ccccc2)c(F)c1` [Example 24, 4-Amino-2-fluoro-1-(3-phenylpropyl)pyridinium chloride], the values for the IC50 in assay [1] (setting [3]), in assay [2] (setting [6]) and in assay [2] (setting [7]) were 0.8 µM, 4.4 µM and 16.8 µM, respectively.
The matching figures for `Nc1cc[n+](CC(=O)c2ccc(OC(F)(F)F)cc2)cc1` [Example 25, 4-Amino-1-(2-oxo-2-(4-(trifluoromethoxy)phenyl)ethyl)pyridinium bromide]: 1.6 µM, 15.5 µM and 40.6 µM.
In the case of `Nc1cc[n+](CC(=O)c2ccccc2)cc1` [Example 26, 4-Amino-1-(2-oxo-2-phenylethyl)pyridinium bromide], the IC50 in assay [1] (setting [3]) came out at 2.4 µM; in assay [2] (setting [6]), 102 µM; in assay [2] (setting [7]) it was 194 µM.
As for `Nc1cc[n+](CCC2CCCCC2)cc1` [Example 27, 4-Amino-1-(2-cyclohexylethyl)pyridinium bromide], the IC50 stood at 0.4 µM in assay [1] (A549, 24 h); 1.7 µM in assay [2] (setting [4]); 19.5 µM in assay [2] (setting [5]).
`Nc1cc[n+](CCC2CCCCC2)c(F)c1` [Example 28, 4-Amino-1-(2-cyclohexylethyl)-2-fluoropyridinium bromide]: the IC50 in assay [1] (setting [3]) amounted to 0.4 µM; in assay [2] (setting [6]), 0.7 µM; in assay [2] (setting [7]), 3.8 µM.
The matching figures for `Nc1cc[n+](Cc2ccccc2)c(N)c1` [Example 29, 2,4-Diamino-1-benzylpyridinium chloride]: 5.3 µM, 38.5 µM and 162 µM.
On to `Nc1cc[n+](Cc2ccccc2)c(Cl)c1` [Example 30, 4-Amino-1-benzyl-2-chloropyridinium chloride], for which the figures for the 50% inhibitory concentration (IC50) in assay [1] (setting [3]), in assay [2] (setting [6]) and in assay [2] (setting [7]) were 0.9 µM, 8.2 µM and 23 µM, respectively.
As for `Nc1cc[n+](CC2CC2)cc1` [Example 31, 4-Amino-1-(cyclopropylmethyl)pyridinium chloride], the half-inhibitory concentration (IC50) in assay [1] (setting [3]) turned out to be 4.3 µM; in assay [2] (setting [6]), 56.2 µM; in assay [2] (setting [7]), 418 µM.
The like results for `Nc1cc[n+](CCc2ccccc2)c(Cl)c1` [Example 32, 4-Amino-2-chloro-1-phenethylpyridinium chloride] were, in that order, 0.3 µM, 8.1 µM and 38.8 µM.
The matching figures for `CNc1cc[n+](CCc2ccccc2)cc1` [Example 33, 4-(Methylamino)-1-phenethylpyridinium chloride]: 1.5 µM, 7.7 µM and 102 µM.
`FC1(F)CCN(c2cc[n+](Cc3ccccc3)cc2)CC1` [Example 65, 1-benzyl-4-(4,4-difluoropiperidin-1-yl)pyridinium chloride]: the values for the IC50 in assay [2] (setting [6]) and in assay [2] (setting [7]) were 28.6 µM and 215 µM, respectively.
The matching figures for `c1ccc(C[n+]2ccc(NC3COC3)cc2)cc1` [Example 67, 1-Benzyl-4-(oxetan-3-ylamino)pyridinium chloride]: 131 µM and 545 µM.
The matching figures for `CC(C)(C)Nc1cc[n+](Cc2ccccc2)cc1` [Example 69, 1-benzyl-4-(tert-butylamino)pyridinium chloride]: 14.6 µM and 132 µM.
The matching figures for `Nc1cc[n+](CC2CC2)cn1` [Example 73, 4-Amino-1-(cyclopropylmethyl)pyrimidin-1-ium chloride]: 169 µM and 358 µM.
As to `Nc1cc[n+](Cc2ccc[se]2)cn1` [Example 74, 4-Amino-1-(selenophen-2-ylmethyl)pyrimidin-1-ium chloride], the IC50 in assay [2] (setting [4]) is 74.4 µM; in assay [2] (setting [5]), 243 µM.

The values are drawn from patent publication US20170305861A1, “HETEROARYL COMPOUNDS COMPRISING NITROGEN AND USE THEREOF” (ImmunoMet Therapeutics, Inc, priority 2016, published 2017).
